{"source": "patent US20240269170A1", "about": "“Treatment of Inflammatory Conditions or Diseases” (Queen Mary University of London, priority 2021, published 2024)", "system": "K/B×N serum induced arthritis in mice", "assay": "K/B×N serum transfer inflammatory arthritis, MCTR3 given immediately after disease onset", "type": "in vivo, mouse", "description": "FIG. 7: MCTR3 limits joint inflammation. Mice were administered K/B×N serum on days 0 and 2 and then treated with MCTR3 (100 ng/mouse) or Vehicle (PBS+0.1% EtOH) on days 3 and 5. Disease course was evaluated by assessing (A) clinical scores. (B-C) On day 7 joints were collected and disease severity was evaluated using (B) H&E Staining and (C) glycosaminoglycan content was assessed using Safranin-O staining, arrows denote Safranin-O staining in cartilage. Results for A are presented as mean±SEM. Statistical differences for A were evaluated using Two-Way ANOVA. n=4 mice per group. IFP=intrapatellar fat, M=meniscus, TB=Tibia, PF=Pannus formation, Red arrows denote leukocyte infiltration. (D-E) Lipid mediator profiles were determined using LC-MS/MS-based lipid mediator profiling and evaluated using PLS-DA. (D) scores plot with highlighted regions denoting the clusters representing cells from each group and (E) VIP scores for top 15 mediators. Each dot in the score plot represents a separate mouse.\nFor this purpose, we employed a serum transfer model of inflammatory arthritis, which relies on the activation of the innate immune system replicating the effector phase of rheumatoid arthritis (Korganow et al., 1999, Immunity 10, 451-461). […] We next evaluated whether MCTR3 administration also regulated the joint lipid mediator profile. Using partial least square discriminant analysis, which produces a regression model built using concentrations of lipid mediators differently expressed between the two groups, we found a shift in joint lipid mediator concentrations in mice treated with MCTR3. This shift was linked with a downregulation of pro-inflammatory and nociceptive eicosanoids including PGE2 and PGF2a and an upregulation of pro-resolving and anti-nociceptive mediators such as MaR1 and PDX (FIG. 7D,E).\nAll samples were extracted using solid-phase extraction columns as in (Gomez et al., 2020, Nat Commun 11, 5420). In brief, samples were placed in ice-cold methanol containing deuterated internal standards (d8-5S-HETE, d4-LTB4, d5-LXA4, d4-PGE2, d5-RvD2, d5-MaR1, d5-MaR2, d5-RvD3, d4-RvE1, d5-17R-RvD1, d5-LTC4, d5-LTD4 and d5-LTE4) representing each chromatographic region of identified LM. Following protein precipitation (−20° C. for a minimum of 45 min), samples were centrifuged and supernatants extracted using an ExtraHera System (Biotage) using solid-phase extraction with Isolute C18 500 mg columns (Biotage). Methyl formate and methanol fractions were collected, brought to dryness and resuspended in phase (methanol/water, 1:1, vol/vol) for injection on a Shimadzu LC-20AD HPLC and a Shimadzu SIL-20AC autoinjector, paired with a QTrap 5500 or QTrap 6500^+ (Sciex). In the analysis of mediators eluted in the methyl formate fraction, an Agilent Poroshell 120 EC-C18 column (100 mm×4.6 mm×2.7 μm) was kept at 50° C. and mediators eluted using a mobile phase consisting of methanol/water/acetic acid of 20:80:0.01 (vol/vol/vol) that was ramped to 50:50:0.01 (vol/vol/vol) over 0.5 min and then to 80:20:0.01 (vol/vol/vol) from 2 min to 11 min, maintained till 14.5 min and then rapidly ramped to 98:2:0.01 (vol/vol/vol) for the next 0.1 min. This was subsequently maintained at 98:2:0.01 (vol/vol/vol) for 5.4 min, and the flow rate was maintained at 0.5 ml/min. QTrap 5500 was operated in negative ionization mode using a multiple reaction monitoring method. […]", "key": {"[1]": {"details": "100 ng/mouse on days 3 and 5, LC-MS/MS, PLS-DA"}, "[2]": {"details": "100 ng/mouse on days 3 and 5, joints day 7"}}}
{"smiles": "CC/C=C\\C/C=C\\C[C@H](O)[C@@H](/C=C/C=C/C=C\\C/C=C\\CCC(=O)O)SC[C@H](N)C(=O)O", "note": "[MCTR3, 13R-cysteinyl, 14S-hydroxy-4Z, 7Z, 9E, 11E, 13R, 14S, 16Z, 19Z-docosahexaenoic acid]", "values": [{"measurement": "joint pro-inflammatory and nociceptive eicosanoids including PGE2 and PGF2a", "setting": "[1]", "value": "downregulation"}, {"measurement": "joint pro-resolving and anti-nociceptive mediators such as MaR1 and PDX", "setting": "[1]", "value": "upregulation"}, {"measurement": "leukocyte infiltration (H&E)", "setting": "[2]", "value": "decrease"}, {"measurement": "safranin staining (glycosaminoglycan content in the cartilage)", "setting": "[2]", "value": "increased"}, {"measurement": "clinical scores", "setting": "100 ng/mouse on days 3 and 5, vs vehicle", "value": "significant reduction"}]}
